Turning to `CC(C)(C)C(=O)C(CS(=O)(=O)c1ccccc1)n1cncn1` (centres undefined), the melting point came to 135 °C.

Compound `CONC(=O)Nc1ccc(-c2sc3c(c2CCl)c(=O)n(-c2ccc4c(c2)OCCO4)c(=O)n3Cc2c(F)cccc2F)cc1` had a melting point of 204 to 209 °C.

Regarding `CC(C)(C)OC(=O)N1CC(CC(=O)CC(=O)OCc2ccc([N+](=O)[O-])cc2)C2NC(=O)C21` (centres undefined), the melting point was in the range of 107 to 110 °C.

Turning to `CCCCc1oc2ccc(-c3nnn[nH]3)cc2c1C(=O)c1ccc(OCCCN(CCCC)CCCC)cc1`, the melting point is 145 to 147 °C.

Take `CCOC(=O)C(=O)CC(=O)C(Br)C(Br)c1ccccc1OC` (centres undefined): the melting point fell in the range of 113 to 115 °C.

`N#Cc1nn(-c2c(Cl)cc(C(F)(F)F)cc2Cl)c(N)c1C=NO` registered a melting point of 175 to 178 °C.

Consider `NC1c2ccccc2-c2[nH]c(=O)c3nccn3c21` (centres undefined), for which the melting point turned out to be 240 °C.

As for `CC(=O)CC(=S)N1N=C(c2ccc([N+](=O)[O-])cc2)c2cc3c(cc2CC1C)OCO3` (centres undefined), the melting point is 178 to 185 °C.

As for `NC(=O)c1c(N)cccc1N1CCCC1`, the melting point was in the range of 144 to 146 °C.

In turn, `CCCc1nn(C)c2c(NCc3ccc(OC)c(Cl)c3)nc(CCC(=O)O)nc12` had a melting point of 178 °C.

The compound `CC(C)(C)C(=O)c1c[nH]c2ncc(N3C(=O)CCc4ccccc43)nc12` came in with a melting point of 257 to 259 °C.

Take `Cc1cc(CO)ccc1NC(=O)CN(C(=O)OC(C)(C)C)c1ccc(F)c(F)c1`: the melting point was in the range of 134 to 136 °C.

For `COCc1cc(O)c2cccc(OC)c2n1`, the melting point lay within 193 to 195 °C.

As for `NS(=O)(=O)c1ccc(Cl)cc1NC(=O)Nc1cccc(C(F)(F)F)c1`, the melting point lay in the range of 163 to 165 °C.

In the case of `CCOc1ccccc1Nc1nc(Nc2cc3c(cc2OC)CCN(CC(=O)N(C)C)CC3)ncc1Cl`, the melting point lay within 60 to 79 °C.

In the case of `OC1=CC(=NNc2ccc(F)cc2)CCC1`, the melting point is 175 to 176 °C.

`O=c1oc(=O)n(-c2cccc(F)c2)c2ncccc12`: the melting point lay within 164 to 166 °C.

With `COC(=O)c1ccc(CN(C(CO)CO)S(=O)(=O)c2ccc(Cl)s2)cc1`, the melting point is 134 to 135 °C.

Consider `O=C(CC1CCCCC1=O)c1ccc([N+](=O)[O-])cc1` (centres undefined), for which the melting point fell in the range of 61 to 63 °C.

The compound `Cc1c(NC(=O)c2ccc(-c3ccc(F)cc3)cc2)ccc2cc(CN3CCC3)cnc12` came in with a melting point of 153 to 155 °C.

As for `COc1ccc2c(c1)C(=O)N(c1ccc3c(ccn3C(C)C)c1)C2`, the melting point lay in the range of 144 to 148 °C.

Compound `CC(C)Nc1c(-c2ccc(C#N)cc2)c(Cl)nc2ncnn12` registered a melting point of 190 °C.

Compound `CNC1(c2cccc(NC(=O)c3cc(OC)c(OC)c(OC)c3)c2)NC=Nc2cc(OC)c(OC)cc21` (centres undefined) registered a melting point of 122 to 124 °C.

For the compound `COCCc1nc2c(N)nc3cc(OCc4cccc(N)c4)ccc3c2n1CC(C)(C)O`, the melting point fell in the range of 203 to 206 °C.

In turn, `CCSc1cn(C)cc(-c2cccc(C(F)(F)F)c2)c1=S` came in with a melting point of 136 to 138 °C.

`CCCCCCCOc1ccc(-c2ccc(N=Nc3ccc([N+](=O)[O-])cc3)cc2)cc1` came in with a melting point of 147 to 148 °C.

In turn, `CCN1C(OC)=NC(C)=NS1(=O)=O` had a melting point of 50 to 53 °C.

`Cc1nc(-n2ccc(OCC3CCCC3)cc2=O)sc1C(=O)NCc1ccccc1`: the melting point fell in the range of 196 to 198 °C.

Compound `O=C1CC[C@@H](C(=O)N[C@@H](CSSC[C@H](NC(=O)[C@@H]2CCC(=O)N2)C(=O)O)C(=O)O)N1` had a melting point of 191 to 193 °C.

On to `O=Cc1cc(Cl)c(Cl)c(Cl)n1`, for which the melting point fell in the range of 84 to 88 °C.

The compound `CC(C)Cc1nc2ccc(Br)cc2c(-c2ccccc2)c1CN1C(=O)c2ccccc2C1=O` returned a melting point of 164 to 165 °C.

In turn, `CNc1nc2ccccc2c2c1ncn2C` showed a melting point of 216 to 218 °C.

Compound `O=C1c2ccc(OC(c3ccccc3)c3ccccc3)cc2OCC1Cc1cccnc1` (centres undefined) showed a melting point of 45 °C.

The compound `Cc1oc(-c2ccccc2)nc1CCCCCC(CO)CO` gave a melting point of 71 to 74 °C.

Source of the values: a melting point compilation (Tetko et al.; mined from patent text by program, amines drawn as free bases though some values may be those of a salt).
